In patent US8568714B2, “Lys K endolysin is synergistic with lysostaphin against MRSA” (priority 2008, dated 2013):
Several values for one entry are separate records, joined by “and”; a condition that tells them apart may be missing. Equal entries are not always repeated. Where two headings read alike, the source gives them in different places.

Columns and labels:
S. aureus strain 305 = experiment: MIC determination on S. aureus strain 305; format: cell-based; details: Staphylococcus aureus
Description: (§1) A classical microdilution broth method for determination of the Minimal Inhibitory Concentration (MIC) was used (Jones et al. 1985. In Manual of Clinical Microbiology, Balows et al. (Eds.), American Society for Microbiology, Washington D.C., pages 972-977). Briefly, logarithmic-phase bacteria were cultivated in tryptic soy broth and adjusted in broth to a concentration of 1×10^6 CFU/ml. Sterile microtiter plates containing 100 μl of either LysK or lysostaphin diluted in TSB are inoculated with 100 μl of the bacterial suspension to yield 5×10^5 CFU/ml. The plate is incubated at 37° C. for 20 h, at which point the plate is analyzed for clear vs. turbid wells. Each MIC assay represents at least two identical determinations per experiment.

MRSA strain USA300 = experiment: Microdilution broth MIC determination; format: cell-based, Staphylococcus aureus; details: MRSA USA300, TSB, 37° C., 20 h
Description: as §1
MIC determinations for MRSA strain USA300 by lysostaphin and C-His-LysK, were performed in a 96 well microtiter plate. (FIG. 5).

MRSA USA300 = experiment: Modified checkerboard synergy assay; format: cell-based, Staphylococcus aureus
Description: Modified checkerboard assay experiments were performed according to Graham and Coote, supra. S. aureus 305 or MRSA USA300 cells at 1×10^6 CFU/ml were prepared as for the MIC assay, and added to wells containing varying concentrations of both LysK and lysostaphin diluted in TSB. The amount of buffer in each well was adjusted to maintain the same final concentration of storage buffer (5%) and corrected with 2×TSB to maintain 1×TSB in all wells. The plate was incubated at 37° C. for 20 h, and then analyzed for clear vs. turbid wells. The Fractional Inhibitory Concentration (FIC) is calculated as the MIC of the antimicrobial in combination divided by the MIC of the antimicrobial acting alone.
To determine if these proteins could act synergistically, both LysK and lysostaphin were tested in a checkerboard assay with various concentrations of each to determine the minimal concentration of each in combination, that could inhibit growth of the MRSA USA300 (FIG. 6). The last row and column on the 96 well microtiter plate replicate the MIC determinations for lysostaphin and LysK, respectively, with nearly identical results obtained for the MIC in this assay, as in FIG. 5. […] It is apparent that the inhibition of growth when the two were added simultaneously was greater than the expected additive effect of each alone. The ΣFIC was 0.45+/−0.07 (three independent experiments), indicating strong synergistic activity (Hall et al., supra), including one assay with S. aureus 305 (data not shown).

`CC1(C)S[C@@H]2[C@H](NC(=O)[C@H](N)c3ccccc3)C(=O)N2[C@H]1C(=O)O` [Ampicillin] gave an MIC (S. aureus strain 305; read-out: MIC) of about 0.4 µg/mL and an MIC (S. aureus strain 305; translated from μg/ml, read-out: MIC on a molar basis) of about 1 µM.

For “lysostaphin: recombinant non-tagged mature 246 amino acid anti-staphylococcal bacteriocin of S. simulans, Sigma-Aldrich L0761”, the MIC (MRSA strain USA300) was 0.096 µg/mL, the MIC (MRSA strain USA300; listed as Lysostaphin) was 0.097 µg/mL and 0.096 ± 0.018 µg/mL and the “concentration of each in combination that inhibits growth” value (MRSA USA300; cleared well: lysostaphin 0.018 with LysK 11.43) was 0.018 µg/mL. For the same compound, the “concentration of each in combination that inhibits growth” value (MRSA USA300; cleared well: lysostaphin 0.027 with LysK 5.71) was 0.027 µg/mL and the “concentration in combination as % of each agent's MIC” value (MRSA USA300; second cleared-well condition) was 16% and < 16%.
